We go through three compounds from paper PMC11117716 (Biomolecules, 2024).

A short description of series [1]: in vivo. How it is done:
(§1) The animal PKs were taken from multiple GLP toxicology studies, biomarker studies, and efficacy studies. […] Sample size (n) represents the number of animals at each time point of sample collection. […] The dose volume was determined according to animals’ weight collected on the dosing day.
(§2) In mice, blood samples were collected via the saphenous vein or other suitable blood collection site into a microcentrifuge tube containing the anti-coagulant K2-EDTA on wet ice and processed for plasma. For samples collected within the first hour of dosing, ±1 min is acceptable, while for all other timepoints, samples were taken within 5% of the scheduled time and are not considered as protocol deviations. Plasma samples were centrifuged (3200× g for 10 min at 4 °C) within an hour of collection. CSF samples were collected with 3 μL volume per time point, frozen on dry ice, and stored at −60 °C for further analysis. For brain collection in mice, animals were euthanized using CO2 inhalation. Whole brain was collected, washed in cold saline, dried, and homogenized immediately […]. Homogenizing buffer MeOH/15 mM PBS (1:2, v:v) was used at a ratio of 1:9 (1 g of tissue with 9 mL of buffer; the dilution ratio is 10).
(§3) In humans, the bioanalytical method was performed in accordance with current FDA, Industry Guidelines, and OECD Principles. […] The sample analysis was conducted in accordance with current GCP and GLP principles, and the results were presented for pharmacokinetic profiling (Absorption Systems, Exton, PA, USA). Calibration ranges for each analyte ranged from 1000 ng/mL to 1 ng/mL (or ng/g for brain) in plasma, brain, and CSF matrices. The detection limit was 0.025 ng/mL. The following PK parameters were collected for the purpose of this manuscript: maximum concentration (Cmax), time to maximum drug concentration (Tmax), half-life (T1/2), and the Area Under the Curve (AUC).

The nature of series [2]: Plasma pharmacokinetics after oral Posiphen in CD-1 mice (LC-MS/MS). The following applies: for AUC(0-t) / Cmax / Tmax: po. As for the experimental part: as §1, §2, §3
Blood plasma samples were collected at various time points within the initial 8 h following administration (6 h for humans). Plasma concentrations (ng/mL) were measured over the 8 h observation window to characterize the maximum concentration (Cmax), the time to peak drug concentration (Tmax), the half-life (T1/2), and the Area Under the Curve (AUC).

Series [3] deals with neurotoxic aggregating proteins. The following applies: cited from earlier work.
A short description of series [4]: Plasma pharmacokinetics after oral Posiphen in humans (LC-MS/MS). The format is in vivo, human. The following applies: human, in vivo, po; for AUC(0-t): read-out: AUC (0-t). As for the experimental part: This paper describes data from multiple studies.
Samples were frozen and then stored at −80 °C.
(§4) The detection limit was 0.025 ng/mL.

The nature of series [5]: Plasma pharmacokinetics after oral Posiphen in Beagle dogs (LC-MS/MS). The following applies: dog plasma. Also on record: species or system dog. How it is done:
In rats and dogs, blood samples were centrifuged, and the resultant plasma was separated, and 200 µL (rat) or 400 µL (dog) of plasma was transferred to uniquely labeled pre-chilled polypropylene tubes containing 5 µL (rat) or 10 µL (dog) Dichlorvos spiking solution (nominal concentration of 0.82 mg/mL in MeOH/Water, 20/80, v/v).
as §4

The nature of series [6]: clinical. The following applies: human, in vivo; for Kp: 80 mg/day; for AUC(0-t) / Cmax: po. As for the experimental part: This paper describes data from multiple studies. The healthy volunteers’ data come from the single ascending and multiple ascending dose study, whereas Alzheimer’s and Parkinson’s patients are represented by the MCI NCT01072812 study, ADCS NCT02925650 study, and AD/PD NCT04524351 study. The evaluations are based on a sample size of n = 4 for each time point.
In humans, plasma and lumbar CSF samples were collected via an indwelling catheter over 12 h (at 0, 1, 1.5, 2, 3, 4, 6, 8, and 12 h) initiated at the same time of day, 1 day prior to the start of dosing, to obtain time-dependent baseline control data, and then at the exact same times immediately after the last dose was administered. Samples were frozen and then stored at −80 °C.
as §3

Series [7] relates to acetylcholinesterase. The following applies: cited from earlier work.
Setting [8] is: CD-1, mouse, in vivo, po, 65 mg/kg, Cmax, Table 2, mouse CSF, oral Posiphen.
[9] abbreviates: both, CD-1, mouse, in vivo, 65 mg/kg.

With `CN1c2ccc(OC(=O)Nc3ccccc3)cc2[C@@]2(C)CCNC12` (stereo partly shown) [N1, N1-norposiphen], in series [1] (setting [8]), the Cmax (usually the highest concentration seen after dosing) is 0.0545 µg/mL. This compound yielded a Cmax in series [1] (CD-1, mouse, po, 65 mg/kg) of 1.85 µg/mL. In series [1] (Table 2, mouse CSF, oral Posiphen), this compound came in with a peak concentration (Cmax) of 0.0544 µg/mL. In series [2] (setting [9]), this compound displayed a concentration at 0.25 h of 0.35 µg/mL, a concentration at 0.5 h of 0.484 µg/mL, a concentration at 1 h of 0.446 µg/mL and a concentration at 1.25 h of 0.554 µg/mL. For the same compound, in series [2] (setting [9]), the concentration at 1.5 h was determined as 0.525 µg/mL, the concentration at 2 h stood at 0.419 µg/mL, the concentration at 4 h amounted to 0.0836 µg/mL and the concentration at 8 h came to 0.00364 µg/mL. Further, in series [2] (setting [9]), the concentration at 12 h came out at 0 µg/mL; the AUC(0-t) – broadly, exposure summed from dosing to a finite time, without extrapolation to infinity – came out at 1.4 µg·h/mL; the peak level (Cmax) was 0.554 µg/mL; the time of peak concentration (Tmax) (commonly the time at which the peak concentration occurs) worked out at 1.25 h. For the same compound, in series [2] (mouse plasma), the “Plasma level relative to N8” value is recorded as “a fourth” and the “Plasma level relative to Posiphen” value is “half”. Besides, the TINAP activity result in series [3] is “has both TINAP and AChEI activities”. In addition, in series [4], the Cmax worked out at 0.0249 µg/mL and the AUC(0-t) turned out to be 0.213 µg·h/mL. For the same compound, the “Primary compound in plasma” value in series [5] was “primary compound”. Moreover, in series [6], the Kp is 0.1, the AUC(0-t) came to 0.0267 µg·h/mL and the highest level (Cmax) was 0.00256 µg/mL. In addition, the “Acetylcholinesterase inhibitory (AChEI) activity” value in series [7] was “has both TINAP and AChEI activities”.

Take `C[C@]12CCNC1Nc1ccc(OC(=O)Nc3ccccc3)cc12` (stereo partly shown) [N1, N8, N1,N8-norposiphen]: in series [4], the Cmax is 0.00366 µg/mL and the AUC(0-t) worked out at 0.0369 µg·h/mL.

In the case of `CN1CC[C@]2(C)c3cc(OC(=O)Nc4ccccc4)ccc3NC12` (stereo partly shown) [N8, N8-norposiphen], the Cmax in series [1] (setting [8]) was determined as 0.309 µg/mL. In series [1] (CD-1, mouse, po, 65 mg/kg), this compound returned a Cmax of 7.29 µg/mL. In series [2] (setting [9]), this compound came in with a concentration at 0.25 h of 0.882 µg/mL, a concentration at 0.5 h of 1.31 µg/mL, a concentration at 1 h of 1.56 µg/mL and a concentration at 1.25 h of 1.79 µg/mL. In series [2] (setting [9]), this compound registered a concentration at 1.5 h of 1.93 µg/mL, a concentration at 2 h of 1.83 µg/mL, a concentration at 4 h of 0.478 µg/mL and a concentration at 12 h of 0 µg/mL. In series [2] (setting [9]), the AUC(0-t) amounted to 5.33 µg·h/mL, the maximum concentration (Cmax) was determined as 1.93 µg/mL and the Tmax was found to be 1.5 h. Moreover, the “Plasma level relative to N1” value in series [2] (mouse plasma) was 3.8 times. Also, the TINAP activity result in series [3] is recorded as “have TINAP”. In series [4], the peak level (Cmax) was 0.0304 µg/mL and the AUC(0-t) amounted to 0.26 µg·h/mL. In series [6], the half-life (in general, how long it takes for the measured level to halve) is greater than 12 h; the Kp stood at 0.17; the AUC(0-t) turned out to be 0.0549 µg·h/mL; the concentration peaked (Cmax) at 0.00508 µg/mL. Moreover, in series [7], the “Acetylcholinesterase inhibitory (AChEI) activity” value is on record as “no acetylcholinesterase inhibitory (AChEI) activity”.
